We go through 10 compounds from patent US8569302B2, “Inhibitors of flaviviridae viruses” (Gilead Sciences, Inc., priority 2009, dated 2013).

The test concerns human hepatoma Huh-7 cell line harboring a HCV replicon. Nature of the test: HCV replicon assay (inhibition of viral replication, luciferase readout). It is filed as cell-based. Particulars: Hepatitis C virus, 72 h, Huh-7 HCV replicon cells, 3 days incubation. In outline:
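Huh-7 replicon cells were exposed to 10-point 3-fold compound dilutions (0.44% DMSO) for 3 days at 37 °C. Replicon replication was read by Dual-Glo luciferase, with background from protease-inhibitor wells subtracted, and viability by calcein AM. EC50/CC50 came from a Hill-equation fit versus DMSO controls.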
Background: In antiviral work, replicon cells carry a viral genome segment that copies itself.
As to `CC(C)(C)C#Cc1cc(N(C(=O)[C@H]2CC[C@H](C)CC2)[C@H]2CC[C@H](Sc3nncn3C3CC3)CC2)c(C(=O)O)s1` [Compound 90, 3-(N-(4-(4-Cyclopropyl-4H-1,2,4-triazol-3-ylthio)cyclohexyl)-4-methylcyclohexanecarboxamido)-5-(3,3-dimethylbut-1-ynyl)thiophene-2-carboxylic acid], 2 µM produced 100% inhibition.
In the case of `CC(C)(C)C#Cc1cc(N(C(=O)[C@H]2CC[C@H](C)CC2)[C@H]2CC[C@H](Sc3ccc4ccccc4n3)CC2)c(C(=O)O)s1` [Compound 91, 5-(3,3-Dimethylbut-1-ynyl)-3-(4-methyl-N-(4-(quinolin-2-ylthio)cyclohexyl)cyclohexanecarboxamido)thiophene-2-carboxylic acid], the inhibition (commonly how much of the control response was suppressed) at 2 µM worked out at 99.8%.
In the case of `CC(C)(C)C#Cc1cc(N(C(=O)[C@H]2CC[C@H](C)CC2)[C@H]2CC[C@H](Sc3nnc4ccccn34)CC2)c(C(=O)O)s1` [Compound 92, 3-(N-(4-([1,2,4]-Triazolo[4,3-a]pyridin-3-ylthio)cyclohexyl)-4-methylcyclohexanecarboxamido)-5-(3,3-dimethylbut-1-ynyl)thiophene-2-carboxylic acid], the inhibition at 2 µM is 100%.
For the compound `CC(C)(C)C#Cc1cc(N(C(=O)[C@H]2CC[C@H](C)CC2)[C@H]2CC[C@H](Sc3cccs3)CC2)c(C(=O)O)s1` [Compound 93, 5-(3,3-Dimethylbut-1-ynyl)-3-(4-methyl-N-(4-(thiophen-2-ylthio)cyclohexyl)cyclohexanecarboxamido)thiophene-2-carboxylic acid], at 2 µM the inhibition was 98.1%.
The compound `CC(C)(C)C#Cc1cc(N(C(=O)[C@H]2CC[C@H](C)CC2)[C@H]2CC[C@H](Sc3ncc[nH]3)CC2)c(C(=O)O)s1` [Compound 94, 3-(N-(4-(1H-Imidazol-2-ylthio)cyclohexyl)-4-methylcyclohexanecarboxamido)-5-(3,3-dimethylbut-1-ynyl)thiophene-2-carboxylic acid] came in with an inhibition at 2 µM of 99.9%.
Under `CC(C)(C)C#Cc1cc(N(C(=O)[C@H]2CC[C@H](C)CC2)[C@H]2CC[C@H](Sc3nc(N)n[nH]3)CC2)c(C(=O)O)s1` [Compound 95, 3-(N-(4-(5-Amino-2H-1,2,4-triazol-3-ylthio)cyclohexyl)-4-methylcyclohexanecarboxamido)-5-(3,3-dimethylbut-1-ynyl)thiophene-2-carboxylic acid] stands 99.9%; under `CC(C)(C)C#Cc1cc(N(C(=O)[C@H]2CC[C@H](C)CC2)[C@H]2CC[C@H](Sc3nc[nH]n3)CC2)c(C(=O)O)s1` [Compound 97, 3-(N-(4-(1H-1,2,4-Triazol-3-ylthio)cyclohexyl)-4-methylcyclohexanecarboxamido)-5-(3,3-dimethylbut-1-ynyl)thiophene-2-carboxylic acid], 99.9%; under `Cc1nnc(S[C@H]2CC[C@H](N(c3cc(C#CC(C)(C)C)sc3C(=O)O)C(=O)[C@H]3CC[C@H](C)CC3)CC2)o1` [Compound 98, 5-(3,3-Dimethylbut-1-ynyl)-3-(4-methyl-N-(4-(5-methyl-1,3,4-oxadiazol-2-ylthio)cyclohexyl)cyclohexanecarboxamido)thiophene-2-carboxylic acid], 100%.
As for `CC(C)(C)C#Cc1cc(N(C(=O)[C@H]2CC[C@H](C)CC2)[C@H]2CC[C@H](Sc3ccccn3)CC2)c(C(=O)O)s1` [Compound 99, 5-(3,3-Dimethylbut-1-ynyl)-3-(4-methyl-N-(4-(pyridin-2-ylthio)cyclohexyl)cyclohexanecarboxamido)thiophene-2-carboxylic acid], testing at 2 µM gave an inhibition of 97.7%.
With `CC(C)(C)C#Cc1cc(N(C(=O)[C@H]2CC[C@H](C)CC2)[C@H]2CC[C@H](Sc3ncccn3)CC2)c(C(=O)O)s1` [Compound 100, 5-(3,3-Dimethylbut-1-ynyl)-3-(4-methyl-N-(4-(pyrimidin-2-ylthio)cyclohexyl)cyclohexanecarboxamido)thiophene-2-carboxylic acid] the figure was 99.9%.
